From paper PMC6832513, “Antimalarial Properties of Dunnione Derivatives as NQO2 Substrates” (Molecules, 2019)
Values joined by “and” are separate entries in the source; they are usually repeats but may differ in a detail not shown here. Equal values may be shown once.

Columns and labels:
[1] = system: P. falciparum strain FcB1; experiment: In vitro antiplasmodial activity, SYBR Green I-based fluorescence assay; format: cell-based, Plasmodium falciparum; settings: for IC50: Plasmodium falciparum, FCB1, 48 h, P. falciparum FcB1 (chloroquine-resistant strain), 48 h, read-out: IC50
Description: The in vitro anti-malarial activity was investigated using the SYBR Green I-based fluorescence assay. The asexual intra-erythrocytic stage of P. falciparum laboratory strain FcB1 (chloroquine-resistant strain) was maintained in RPMI 1640 medium containing l-glutamine 200 µM, Hepes 25 mM and 5% human serum (Etablissement Français du Sang—EFS, Toulouse, France). For anti-malarial drug assays, stock solutions of compounds were diluted serially in RPMI 1640 culture medium to test final concentrations between 0.001 and 1 µg/mL in triplicates in a 96-well plate. The final concentration of DMSO was 0.5%. A suspension of sorbitol-synchronized, infected red blood cells (iRBCs) was adjusted to 1% parasitemia and 2% hematocrit in complete medium and added to the wells. Negative controls were prepared with a suspension of iRBCs and 0.5% DMSO. Chloroquine was used as the positive control. Test plates were incubated at 37 °C for 48 h. Afterwards, 100 μL SYBR Green I fluorescent lysis buffer were added to each well and incubated in a dark place at room temperature for 2 h. Fluorescence data were acquired using a fluorescence plate reader (BMG Fluostar Galaxy Labtech) with excitation and emission wavelengths at 485 nm and 518 nm, respectively. The fluorescence values (after subtraction of the background fluorescence of the non-parasitized RBCs) were plotted against the log of the drug concentration, and analyzed by non-linear regression (sigmoidal dose response/variable slope equation) to yield the IC50 (50% inhibitory concentration) that served as a measure of the anti-malarial activity.

[2] = system: P. chabaudi chabaudi; experiment: Four-days suppressive test, P. chabaudi chabaudi mice model (uncomplicated malaria); format: in vivo, Plasmodium chabaudi chabaudi in Swiss mice; settings: for % inhibition of parasite density at D8: 50 mg/kg intraperitoneal D0 to D3, D8; for Pcc parasite density compared to DMSO treatment: 50 mg/kg intraperitoneal D0 to D3, D8 (peak of parasitemia), p < 0.0001; for weight development at D11 after Pcc infection: 50 mg/kg intraperitoneal D0 to D3, D11; for death after Pcc infection: 50 mg/kg intraperitoneal D0 to D3, monitored 13 days
Description: As previously described, the four-days suppressive standard test described by Knight and Peters was used to evaluate antimalarial activity of Compounds 1 and 3. P. chabaudi chabaudi (Pcc) and P. berghei ANKA (PbA) infections in Swiss mice were used as experimental models for uncomplicated and cerebral malaria, respectively. […] On the first day (D0), mice were inoculated intraperitoneally with 0.2 mL of infected blood containing about 1 × 10^6 parasitized erythrocytes. […] All mice groups were treated similarly for four consecutive days (D0–D3). Weight, parasitemia and survival were followed daily. To follow peripheral parasite density, thin blood smears were made daily from tail blood from D3 to D14. Blood smears were fixed with methanol and stained with a fast-acting variation of the May–Grünwald Giemsa staining (RAL 555 kit, RAL diagnostics). Average percentage chemosuppression was calculated at D8 for both infection models as ((A − B)/A) × 100 where A is the average percentage parasitemia in the negative control group and B is the average percentage parasitemia in the test group. Survival was monitored twice daily. […]

Structure (SMILES)	TI (Therapeutic Index = CC50/IC50) [1]	IC50 [1] [nM]	% inhibition of parasite density at D8 [2]	Pcc parasite density compared to DMSO treatment [2]	weight development at D11 after Pcc infection [2]	death after Pcc infection [2]	efficacy on parasite density compared to the CQ treatment ([2]; 50 mg/kg intraperitoneal vs CQ, D8)
COc1cccc2c1C1=C(C(=O)C2=O)C(C)(C)C(C)O1 (stereo not shown) [Compound 1]	3.83	633 ± 740	74.8% and 90.6%	highly reduced	lost more weight than other groups	did not cause any death	–
COc1ccc2c(c1)C(=O)C(=O)C1=C2OC(C)C1(C)C (stereo not shown) [Compound 3]	1.70	845 ± 334	90.6% and 74.8%	highly reduced	lost more weight than other groups	did not cause any death	less effective
